# In US9902702B2, “Spirocycloheptanes as inhibitors of rock” (BRISTOL-MYERS SQUIBB COMPANY, priority 2014, dated 2018):
# pIC50: −log10 of the molar value. Counter-ions that a name gives are not always drawn.
# Molecular target: ROCK2 (Homo sapiens, UniProt O75116)
# Assay: ROCK assay: phosphorylation of FITC peptide substrate, LABCHIP 3000 mobility shift
# Assay type: biochemical
# Details: 5 μM ATP, 1.5 μM peptide substrate; read-out: ROCK2 Activity (ROCK IC50 range)
# Procedure, shortened: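 Rho kinase variant phosphorylates 1.5 μM FITC-AHA-AKRRRLSSLRA-OH with 5 μM ATP in 20 mM HEPES pH 7.5, 20 mM MgCl2, 0.015% Brij-35, 4 mM DTT, DMSO <2%. EDTA stops the reaction, and phospho and non-phospho peptides are resolved by LabChip 3000 mobility shift. IC50 from dose-response curve fit.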
# Chain of ROCK2 (O75116 whole entry, species assumed): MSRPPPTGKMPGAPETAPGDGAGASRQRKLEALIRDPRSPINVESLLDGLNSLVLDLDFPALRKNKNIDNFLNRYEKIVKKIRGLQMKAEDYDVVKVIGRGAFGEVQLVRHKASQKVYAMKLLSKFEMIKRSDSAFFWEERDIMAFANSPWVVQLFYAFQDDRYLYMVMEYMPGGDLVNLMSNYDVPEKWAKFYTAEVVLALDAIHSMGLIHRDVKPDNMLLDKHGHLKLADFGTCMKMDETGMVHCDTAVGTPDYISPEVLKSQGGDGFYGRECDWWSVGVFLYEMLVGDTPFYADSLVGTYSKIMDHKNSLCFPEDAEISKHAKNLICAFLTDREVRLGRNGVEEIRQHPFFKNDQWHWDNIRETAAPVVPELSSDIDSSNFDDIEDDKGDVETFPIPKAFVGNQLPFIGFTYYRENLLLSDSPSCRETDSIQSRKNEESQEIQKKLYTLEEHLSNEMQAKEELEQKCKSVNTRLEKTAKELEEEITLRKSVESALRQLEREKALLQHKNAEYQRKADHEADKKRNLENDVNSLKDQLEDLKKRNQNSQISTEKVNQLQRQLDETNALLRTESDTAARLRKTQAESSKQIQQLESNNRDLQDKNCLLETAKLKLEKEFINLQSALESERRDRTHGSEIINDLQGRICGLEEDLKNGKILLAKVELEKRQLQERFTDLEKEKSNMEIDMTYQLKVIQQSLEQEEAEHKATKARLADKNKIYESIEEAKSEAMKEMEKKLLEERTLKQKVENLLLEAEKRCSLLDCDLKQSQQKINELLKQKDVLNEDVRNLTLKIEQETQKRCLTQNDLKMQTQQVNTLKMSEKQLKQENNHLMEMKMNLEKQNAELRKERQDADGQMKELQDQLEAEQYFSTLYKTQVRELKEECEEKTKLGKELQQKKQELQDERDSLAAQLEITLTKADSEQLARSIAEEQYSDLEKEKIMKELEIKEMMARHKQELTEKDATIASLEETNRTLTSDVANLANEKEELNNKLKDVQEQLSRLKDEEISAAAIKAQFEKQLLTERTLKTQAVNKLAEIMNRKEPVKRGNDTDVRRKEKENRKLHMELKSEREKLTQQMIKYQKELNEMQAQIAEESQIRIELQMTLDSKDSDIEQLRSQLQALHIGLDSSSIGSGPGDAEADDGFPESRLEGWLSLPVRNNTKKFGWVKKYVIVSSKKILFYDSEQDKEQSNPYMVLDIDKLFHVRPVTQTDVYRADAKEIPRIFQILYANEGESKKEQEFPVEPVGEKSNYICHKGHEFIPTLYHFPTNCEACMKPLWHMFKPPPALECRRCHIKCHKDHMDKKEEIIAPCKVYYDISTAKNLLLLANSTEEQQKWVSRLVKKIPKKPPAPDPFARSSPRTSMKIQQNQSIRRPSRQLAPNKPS
row,SMILES,pIC50
1,"[H][C@]1(c2n[nH]c(=O)c3ccccc32)C[C@]2(C[C@@H](NC(=O)c3cnc4c(F)cc(F)cn34)C2)C1 (stereo partly drawn) [Example 411, 6,8-difluoro-N-((aR)-6-(4-oxo-3,4-dihydrophthalazin-1-yl)spiro[3.3]heptan-2-yl)imidazo[1,2-a]pyridine-3-carboxamide]",7.82 to 8.29
2,"[H][C@]1(c2n[nH]c(=O)c3ccccc32)C[C@]2(C[C@@H](NC(=O)c3cnc4cc(C)ccn34)C2)C1 (stereo partly drawn) [Example 412, 7-methyl-N-((aR)-6-(4-oxo-3,4-dihydrophthalazin-1-yl)spiro[3.3]heptan-2-yl)imidazo[1,2-a]pyridine-3-carboxamide]",8.30 to 8.70
3,"[H][C@]1(c2n[nH]c(=O)c3ccccc32)C[C@]2(C[C@@H](NC(=O)c3cnc4c(OCc5ccccc5)cccn34)C2)C1 (stereo partly drawn) [Example 413, 8-(benzyloxy)-N-((aR)-6-(4-oxo-3,4-dihydrophthalazin-1-yl)spiro[3.3]heptan-2-yl)imidazo[1,2-a]pyridine-3-carboxamide]",8.70 to 9.70
4,"[H][C@]1(c2n[nH]c(=O)c3ccccc32)C[C@]2(C[C@@H](NC(=O)c3cnc4cc(SC)ccn34)C2)C1 (stereo partly drawn) [Example 414, 7-(methylthio)-N-((aR)-6-(4-oxo-3,4-dihydrophthalazin-1-yl)spiro[3.3]heptan-2-yl)imidazo[1,2-a]pyridine-3-carboxamide]",8.70 to 9.70
5,"[H][C@]1(c2n[nH]c(=O)c3ccccc32)C[C@]2(C[C@@H](NC(=O)c3cc4n(n3)CCNC4=O)C2)C1 (stereo partly drawn) [Example 415, 4-oxo-N-((aR)-6-(4-oxo-3,4-dihydrophthalazin-1-yl)spiro[3,3]heptan-2-yl)-4,5,6,7-tetrahydropyrazolo[1,5-a]pyrazine-2-carboxamide]",5.68 to 7.00
6,"[H][C@]1(c2n[nH]c(=O)c3ccccc32)C[C@]2(C[C@@H](NC(=O)c3ccc(-c4cn[nH]c4)c(OC)c3)C2)C1 (stereo partly drawn) [Example 416, 3-methoxy-N-((aR)-6-(4-oxo-3,4-dihydrophthalazin-1-yl)spiro[3.3]heptan-2-yl)-4-(1H-pyrazol-4-yl)benzamide]",8.70 to 9.70
7,"[H][C@]1(c2n[nH]c(=O)c3ccccc32)C[C@]2(C[C@@H](NC(=O)c3ccc(-c4cn[nH]c4)c(C#N)c3)C2)C1 (stereo partly drawn) [Example 417, 3-cyano-N-((aR)-6-(4-oxo-3,4-dihydrophthalazin-1-yl)spiro[3.3]heptan-2-yl)-4-(1H-pyrazol-4-yl)benzamide]",8.70 to 9.70
8,"[H][C@]1(c2n[nH]c(=O)c3ccccc32)C[C@]2(C[C@@H](NC(=O)c3ccc(-c4cn[nH]c4)c(C)c3)C2)C1 (stereo partly drawn) [Example 418, 3-methyl-N-((aR)-6-(4-oxo-3,4-dihydrophthalazin-1-yl)spiro[3,3]heptan-2-yl)-4-(1H-pyrazol-4-yl)benzamide]",8.70 to 9.70
9,"[H][C@]1(c2n[nH]c(=O)c3ccccc32)C[C@]2(C[C@@H](NC(=O)c3ccc(-c4cn[nH]c4)cc3OC)C2)C1 (stereo partly drawn) [Example 419, 2-methoxy-N-((aR)-6-(4-oxo-3,4-dihydrophthalazin-1-yl)spiro[3.3]heptan-2-yl)-4-(1H-pyrazol-4-yl)benzamide]",8.30 to 8.70
10,"[H][C@]1(c2n[nH]c(=O)c3ccccc32)C[C@]2(C[C@@H](NC(=O)c3cc4cccc(-c5cnn(C)c5)c4[nH]3)C2)C1 (stereo partly drawn) [Example 420, 7-(1-methyl-1H-pyrazol-4-yl)-N-((aR)-6-(4-oxo-3,4-dihydrophthalazin-1-yl)spiro[3.3]heptan-2-yl)-1H-indole-2-carboxamide]",7.82 to 8.29
11,"[H][C@]1(c2n[nH]c(=O)c3ccccc32)C[C@]2(C[C@@H](NC(=O)c3ccc4c(c3)COc3cncnc3-4)C2)C1 (stereo partly drawn) [Example 421, N-((aR)-6-(4-oxo-3,4-dihydrophthalazin-1-yl)spiro[3.3]heptan-2-yl)-6H-isochromeno[4,3-d]pyrimidine-8-carboxamide]",7.00 to 7.82
12,"[H][C@]1(c2n[nH]c(=O)c3ccccc32)C[C@]2(C[C@@H](NC(=O)c3ccc(-c4cnn(C)c4)c(OC)c3)C2)C1 (stereo partly drawn) [Example 422, 3-methoxy-4-(1-methyl-1H-pyrazol-4-yl)-N-((aR)-6-(4-oxo-3,4-dihydrophthalazin-1-yl)spiro[3.3]heptan-2-yl)benzamide]",8.30 to 8.70
13,"[H][C@]1(c2n[nH]c(=O)c3ccccc32)C[C@]2(C[C@@H](NC(=O)c3ccc(-c4cnn(C)c4)c(F)c3)C2)C1 (stereo partly drawn) [Example 423, 3-fluoro-4-(1-methyl-1H-pyrazol-4-yl)-N-((aR)-6-(4-oxo-3,4-dihydrophthalazin-1-yl)spiro[3.3]heptan-2-yl)benzamide]",8.30 to 8.70
14,"[H][C@]1(c2n[nH]c(=O)c3ccccc32)C[C@]2(C[C@@H](NC(=O)c3ccc(-c4cnn(C)c4)nc3)C2)C1 (stereo partly drawn) [Example 425, 6-(1-methyl-1H-pyrazol-4-yl)-N-((aR)-6-(4-oxo-3,4-dihydrophthalazin-1-yl)spiro[3.3]heptan-2-yl)nicotinamide]",7.82 to 8.29
15,"[H][C@]1(c2n[nH]c(=O)c3ccccc32)C[C@]2(C[C@@H](NC(=O)c3cnc4cc(C(C)=O)ccn34)C2)C1 (stereo partly drawn) [Example 426, 7-acetyl-N-((aR)-6-(4-oxo-3,4-dihydrophthalazin-1-yl)spiro[3.3]heptan-2-yl)imidazo[1,2-a]pyridine-3-carboxamide]",8.70 to 9.70
16,"[2H]C([2H])([2H])n1cc(-c2ccc(C(=O)N[C@H]3CC4(C3)C[C@H](c3n[nH]c(=O)c5ccccc53)C4)cc2F)cn1 (stereo partly drawn) [Example 427, 3-fluoro-4-(1-d3-methyl-1H-pyrazol-4-yl)-N-((aR)-6-(4-oxo-3,4-dihydrophthalazin-1-yl)spiro[3.3]heptan-2-yl)benzamide]",7.82 to 8.29
17,"[H][C@]1(c2n[nH]c(=O)c3ccccc32)C[C@]2(C[C@@H](NC(=O)c3ccc(-c4cnn(C(F)F)c4)c(F)c3)C2)C1 (stereo partly drawn) [Example 428, 4-(1-(difluoromethyl)-1H-pyrazol-4-yl)-3-fluoro-N-((aR)-6-(4-oxo-3,4-dihydrophthalazin-1-yl)spiro[3.3]heptan-2-yl)benzamide]",7.82 to 8.29
18,"[H][C@]1(c2n[nH]c(=O)c3ccccc32)C[C@]2(C[C@@H](NC(=O)c3cnc4cc(C(C)(C)O)ccn34)C2)C1 (stereo partly drawn) [Example 429, 7-(2-hydroxypropan-2-yl)-N-((aR)-6-(4-oxo-3,4-dihydrophthalazin-1-yl)spiro[3.3]heptan-2-yl)imidazo[1,2-a]pyridine-3-carboxamide]",7.00 to 7.82
19,"[H][C@]1(c2n[nH]c(=O)c3ccccc32)C[C@]2(C[C@@H](NC(=O)c3cnc4cc(C(C)O)ccn34)C2)C1 (stereo partly drawn) [Example 430, 7-(1-hydroxyethyl)-N-((aR)-6-(4-oxo-3,4-dihydrophthalazin-1-yl)spiro[3.3]heptan-2-yl)imidazo[1,2-a]pyridine-3-carboxamide]",7.82 to 8.29
20,"[H][C@]1(c2n[nH]c(=O)c3ccccc32)C[C@]2(C[C@@H](NC(=O)c3cnc4cc(OC5CCS(=O)(=O)CC5)ccn34)C2)C1 (stereo partly drawn) [Example 431, 7-((1,1-dioxidotetrahydro-2H-thiopyran-4-yl)oxy)-N-((aR)-6-(4-oxo-3,4-dihydrophthalazin-1-yl)spiro[3.3]heptan-2-yl)imidazo[1,2-a]pyridine-3-carboxamide]",8.70 to 9.70
21,"[H][C@]1(c2n[nH]c(=O)c3ccccc32)C[C@]2(C[C@@H](NC(=O)c3cnc4cc(OCCC(F)(F)F)ccn34)C2)C1 (stereo partly drawn) [Example 432, N-((aR)-6-(4-oxo-3,4-dihydrophthalazin-1-yl)spiro[3.3]heptan-2-yl)-7-(3,3,3-trifluoro-propoxy)imidazo[1,2-a]pyridine-3-carboxamide]",8.30 to 8.70
22,"[H][C@]1(c2n[nH]c(=O)c3ccccc32)C[C@]2(C[C@@H](NC(=O)c3cnc4cc(OC(CF)CF)ccn34)C2)C1 (stereo partly drawn) [Example 433, 7-((1,3-difluoropropan-2-yl)oxy)-N-((aR)-6-(4-oxo-3,4-dihydrophthalazin-1-yl)spiro[3.3]heptan-2-yl)imidazo[1,2-a]pyridine-3-carboxamide]",8.30 to 8.70
23,"[H][C@]1(c2n[nH]c(=O)c3ccccc32)C[C@]2(C[C@@H](NC(=O)c3cnc4cc(Oc5ccccn5)ccn34)C2)C1 (stereo partly drawn) [Example 434, N-((aR)-6-(4-oxo-3,4-dihydrophthalazin-1-yl)spiro[3.3]heptan-2-yl)-7-(pyridin-2-yloxy)imidazo[1,2-a]pyridine-3-carboxamidc]",8.70 to 9.70
24,"[H][C@]1(c2n[nH]c(=O)c3ccccc32)C[C@]2(C[C@@H](NC(=O)c3nc(C(C)C)n4ccccc34)C2)C1 (stereo partly drawn) [Example 435, 3-isopropyl-N-((aR)-6-(4-oxo-3,4-dihydrophthalazin-1-yl)spiro[3.3]heptan-2-yl)imidazo[1,5-a]pyridine-1-carboxamide]",7.82 to 8.29
25,"[H][C@]1(c2n[nH]c(=O)c3ccccc32)C[C@]2(C[C@@H](NC(=O)c3cnc4cc(OCC(F)F)ccn34)C2)C1 (stereo partly drawn) [Example 436, 7-(2,2-difluoroethoxy)-N-((aR)-6-(4-oxo-3,4-dihydrophthalazin-1-yl)spiro[3.3]heptan-2-yl)imidazo[1,2-a]pyridine-3-carboxamide]",8.70 to 9.70
26,"[H][C@]1(c2n[nH]c(=O)c3ccccc32)C[C@]2(C[C@@H](NC(=O)c3cnc4cc(OC(C)C)ccn34)C2)C1 (stereo partly drawn) [Example 437, 7-isopropoxy-N-((aR)-6-(4-oxo-3,4-dihydrophthalazin-1-yl)spiro[3.3]heptan-2-yl)imidazo[1,2-a]pyridine-3-carboxamide]",8.30 to 8.70
27,"[H][C@]1(c2n[nH]c(=O)c3ccccc32)C[C@]2(C[C@@H](NC(=O)c3cnn4cccc(N5CCOCC5)c34)C2)C1 (stereo partly drawn) [Example 438, 4-morpholino-N-((aR)-6-(4-oxo-3,4-dihydrophthalazin-1-yl)spiro[3.3]heptan-2-yl)pyrazolo[1,5-a]pyridine-3-carboxamide]",5.68 to 7.00
28,"CCn1cc(-c2ccn3c(C(=O)N[C@H]4CC5(C4)C[C@H](c4n[nH]c(=O)c6ccccc64)C5)cnc3c2)cn1 (stereo partly drawn) [Example 439, 7-(1-ethyl-1H-pyrazol-4-yl)-N-((aR)-6-(4-oxo-3,4-dihydrophthalazin-1-yl)spiro[3.3]heptan-2-yl)imidazo[1,2-a]pyridine-3-carboxamide, TFA salt]",8.70 to 9.70
